Assay results reported in patent publication US10919902B2, “Hetero-halo inhibitors of histone deacetylase” (Alkermes, Inc., priority 2015, dated 2021).
pIC50: −log10 of the molar value.

Each molecule was assayed against recombinant human HDACs (Homo sapiens) (assay: HDAC enzymatic assay). Conditions: 5 nM HDAC enzyme, 5 h pre-incubation, 17 h reaction at 25° C.; isoform not given; read-out: IC50.
Type: biochemical
Procedure: All recombinant human HDACs were purchased from BPS Bioscience. The substrate, FAM-TSRHK(AC)KL-CONH, was synthesized at NanoSyn. Final assay reactions contained 100 mM HEPES (pH 7.5), 50 mM KCl, 0.1% BSA, 0.01% Triton X-100, 1% DMSO, 1 uM substrate and 5 nM HDAC enzyme. Enzyme and compounds were pre-incubated at 25° C. for 5 hours and reactions were initiated by addition of substrate. 10 uL reactions were incubated for 17 hours at 25° C. and terminated by the addition of 40 uL of buffer containing 100 mM HEPES (pH 7.5), 0.1% BSA, 0.01% Triton X-100 and 0.05% SDS. Substrate and product peptides present in each sample were separated electrophoretically using the LabChip 3000 capillary electrophoresis instrument. Change in the relative fluorescence intensity of the substrate and product peaks reflects enzyme activity. Reaction progress was determined as the product to sum ratio (PSR):P/(S+P), where P is the peak height of the product peptide and S is the peak height of the substrate peptide. Reactions were performed in duplicate at 12 concentrations, (3× serial dilutions starting at 30 uM). IC50 values were calculated using a 4 Parameter Logistic Model.

Row | SMILES | pIC50
1 | COc1cccc(CN2CCCC3(CCN(C(=O)Nc4nc(-c5ccc(F)cc5)ccc4N)C3)C2)c1 (centres unmarked) [Compound 222] | < 5.30
2 | COCC1CCN(C(=O)Nc2nc(-c3ccc(F)cc3)ccc2N)C1 (centres unmarked) [Compound 389] | < 5.30
3 | Nc1ccc(-c2ccc(F)cc2)nc1NC(=O)N1CC2CC(NC3COC3)CC2C1 (centres unmarked) [Compound 172] | 5.30 to 6.30
4 | CC(=O)N1CCC(C(=O)Nc2nc(-c3ccccc3)ccc2N)CC1 [Compound 380] | < 5.30
5 | Cn1cc(CN2CCCC3(CCN(C(=O)Nc4nn(-c5ccc(F)cc5)cc4N)C3)C2)cn1 (centres unmarked) [Compound 123] | < 5.30
6 | Nc1ccc(-c2ccc(F)cc2)nc1NC(=O)N1Cc2cnc(N3CCC3)cc2C1 [Compound 147] | 6.30 to 7.00
7 | Nc1ccc(-c2ccc(F)cc2)nc1NC(=O)N1CCN(C(=O)C2C[C@H]2c2ccccc2)CC1 (some centres unmarked) [Compound 225] | 5.30 to 6.30
8 | Nc1ccc(-c2ccc(F)cc2)nc1NC(=O)N1CC2COCC2C1 (centres unmarked) [Compound 392] | 5.30 to 6.30
9 | COc1ccc(-c2ccc(N)c(NC(=O)N3Cc4ccncc4C3)n2)cc1 [Compound 173] | 5.30 to 6.30
10 | Nc1ccc(-c2ccc(F)cc2)nc1NC(=O)N1Cc2cc(CN3CC(F)C3)cnc2C1 [Compound 275] | 6.30 to 7.00
11 | CN1CCC(c2cc3c(cn2)CN(C(=O)Nc2nc(-c4ccc(F)cc4)ccc2N)C3)CC1 [Compound 149] | 6.30 to 7.00
12 | CN(C1COC1)[C@H]1[C@@H]2CN(C(=O)Nc3nc(-c4ccc(F)cc4)ccc3N)C[C@@H]21 [Compound 262] | < 5.30
13 | Nc1cn(-c2ccccc2)nc1NC(=O)N1CC2COCC2C1 (centres unmarked) [Compound 382] | < 5.30
14 | CN1CC(Cn2cc3c(n2)CN(C(=O)Nc2nc(-c4ccc(F)cc4)ccc2N)C3)C1 [Compound 245] | 6.30 to 7.00
15 | COc1cccc(CN2CCCC3(CCN(C(=O)Nc4nn(-c5ccc(F)cc5)cc4N)C3)C2)c1 (centres unmarked) [Compound 124] | < 5.30
16 | CN1CC(n2ncc3c2CN(C(=O)Nc2nc(-c4ccc(F)cc4)ccc2N)C3)C1 [Compound 246] | < 5.30
17 | Nc1ccc(-c2ccc(F)cc2)nc1NC(=O)N1CC2CN(CC3CCOCC3)CC2C1 (centres unmarked) [Compound 235] | < 5.30
18 | Nc1ccc(-c2ccc(F)cc2)nc1NC(=O)N1CC2CN(C3COC3)CC2C1 (centres unmarked) [Compound 203] | < 5.30
19 | Nc1cn(-c2ccc(F)cc2)nc1NC(=O)N1CCN(C(=O)[C@@H]2C[C@H]2c2ccccc2)CC1 [Compound 125] | 5.30 to 6.30
20 | CN(C)CCN1CC2CN(C(=O)Nc3nc(-c4ccc(F)cc4)ccc3N)CC2C1 (centres unmarked) [Compound 166] | 5.30 to 6.30
21 | Nc1ccc(-c2ccccc2)nc1NC(=O)N1CC2CN(C3COC3)CC2C1 (centres unmarked) [Compound 199] | < 5.30
22 | Nc1ccc(-c2ccc(F)cc2)nc1NC(=O)N1Cc2ccc(CN3CCC(C(F)(F)F)C3)cc2C1 (centres unmarked) [Compound 408] | 6.30 to 7.00
23 | CN(C)Cc1ccc2c(c1)CN(C(=O)Nc1nc(-c3ccco3)ccc1N)C2 [Compound 365] | 6.30 to 7.00
24 | Nc1ccc(-c2ccc(F)cc2)nc1NC(=O)N1CCN2CCCC2C1 (centres unmarked) [Compound 224] | < 5.30
25 | CN1CCN(c2cnc3c(c2)CN(C(=O)Nc2nc(-c4ccc(F)cc4)ccc2N)C3)CC1 [Compound 159] | 6.30 to 7.00
26 | Nc1ccc(-c2ccccc2)nc1NC(=O)N1CC2CC(NC3COC3)CC2C1 (centres unmarked) [Compound 191] | 5.30 to 6.30

Row | SMILES | pIC50
27 | Nc1ccc(-c2ccc(F)cc2)nc1NC(=O)C1[C@H]2CN(C3COC3)C[C@@H]12 (some centres unmarked) [Compound 239] | < 5.30
28 | CN1CCC(c2cnc3c(c2)CN(C(=O)Nc2nc(-c4ccc(F)cc4)ccc2N)C3)CC1 [Compound 252] | 6.30 to 7.00
29 | Nc1ccc(-c2ccc(F)cc2)nc1NC(=O)C1CN(c2ccccn2)C1 [Compound 192] | < 5.30
30 | Nc1ccc(-c2cccnc2)nc1NC(=O)C1CCN(Cc2ccccc2F)CC1 [Compound 378] | < 5.30
31 | Nc1ccc(-c2ccc(F)cc2)nc1NC(=O)N1C[C@@H]2[C@@H](CN3CCC3)[C@@H]2C1 [Compound 270] | < 5.30
32 | Nc1ccc(-c2ccco2)nc1NC(=O)N1CC2CC(N3CC(F)C3)CC2C1 (centres unmarked) [Compound 189] | < 5.30
33 | Nc1cn(-c2ccccc2)nc1NC(=O)C1CCN(C2COC2)CC1 [Compound 359] | < 5.30
34 | Nc1ccc(-c2ccc(F)cc2)nc1NC(=O)C1[C@H]2CN(C3CCOCC3)C[C@@H]12 (some centres unmarked) [Compound 264] | < 5.30
35 | Nc1ccc(-n2cccn2)nc1NC(=O)N1CC2CN(CCF)CC2C1 (centres unmarked) [Compound 167] | < 5.30
36 | Nc1ccc(-c2ccc(F)cc2)nc1NC(=O)N1CC2CCC(C1)O2 [Compound 406] | < 5.30
37 | CN1CCC(N2CC3CN(C(=O)Nc4nc(-c5ccc(F)cc5)ccc4N)CC3C2)CC1 (centres unmarked) [Compound 169] | 5.30 to 6.30
38 | CN1CCC(COC(=O)Nc2nc(-c3cccnc3)ccc2N)CC1 [Compound 375] | < 5.30
39 | CN(C)Cc1ccc2c(c1)CN(C(=O)Nc1nc(-c3ccc(F)cc3)ccc1N)C2 [Compound 371] | 6.30 to 7.00
40 | CN(C)Cc1cc2c(cn1)CN(C(=O)Nc1nc(-c3ccc(F)cc3)ccc1N)C2 [Compound 162] | 6.30 to 7.00
41 | CN1CCC(c2ccc3c(c2)CN(C(=O)Nc2nn(-c4ccccc4)cc2N)C3)CC1 [Compound 383] | 6.30 to 7.00
42 | Cc1cnc(C(=O)Nc2nn(-c3ccccc3)cc2N)s1 [Compound 126] | 5.30 to 6.30
43 | Nc1ccc(-c2ccco2)nc1NC(=O)C1CN(c2ccccn2)C1 [Compound 193] | < 5.30
44 | CC(=O)N1CCN(C(=O)Nc2nn(-c3ccccc3)cc2N)CC1 [Compound 360] | < 5.30
45 | COc1ccc(-c2ccc(N)c(NC(=O)N3Cc4cc(F)cnc4C3)n2)cc1 [Compound 187] | 5.30 to 6.30
46 | Nc1ccc(-c2ccc(F)cc2)nc1NC(=O)N1CC2CN(CCF)CC2C1 (centres unmarked) [Compound 183] | < 5.30
47 | Nc1ccc(-c2ccco2)nc1NC(=O)N1CC2CN(Cc3ccccc3F)CC2C1 (centres unmarked) [Compound 175] | < 5.30
48 | CN1CCN(c2ccc3c(c2)CN(C(=O)Nc2nn(-c4ccccc4)cc2N)C3)CC1 [Compound 352] | 5.30 to 6.30
49 | Nc1ccc(-c2ccc(F)cc2)nc1NC(=O)N1Cc2cccc(F)c2C1 [Compound 259] | 6.30 to 7.00
50 | Nc1ccc(-c2ccccc2)nc1NC(=O)CN1CCn2cncc2C1 [Compound 194] | < 5.30
51 | COC1CCN(C(=O)Nc2nc(-c3ccc(F)cc3)ccc2N)C1 (centres unmarked) [Compound 388] | 5.30 to 6.30
52 | Nc1ccc(-c2ccc(F)cc2)nc1NC(=O)N1Cc2cccc(N3CCCC3)c2C1 [Compound 249] | < 5.30

Row | SMILES | pIC50
53 | Nc1ccc(-c2ccc(F)cc2)nc1NC(=O)N1Cc2ccncc2C1 [Compound 373] | 6.30 to 7.00
54 | Cc1cc2c(cn1)CN(C(=O)Nc1nc(-c3ccc(F)cc3)ccc1N)C2 [Compound 151] | 6.30 to 7.00
55 | CN1CCN(c2ccc3c(n2)CN(C(=O)Nc2nc(-c4ccc(F)cc4)ccc2N)C3)CC1 [Compound 391] | 6.30 to 7.00
56 | CN1CCN(c2cc3c(cn2)CN(C(=O)Nc2nc(-c4ccc(F)cc4)ccc2N)C3)CC1 [Compound 160] | 6.30 to 7.00
57 | Nc1ccc(-n2cccn2)nc1NC(=O)N1CC2CN(Cc3ccccc3F)CC2C1 (centres unmarked) [Compound 177] | < 5.30
58 | Nc1ccc(-c2ccc(F)cc2)nc1NC(=O)N1CC2CC(N3CCOCC3)CC2C1 (centres unmarked) [Compound 181] | < 5.30
59 | Nc1ccc(-c2ccc(F)cc2)nc1NC(=O)N1Cc2cc(N3CCOCC3)cnc2C1 [Compound 158] | 6.30 to 7.00
60 | Nc1ccc(-c2cccs2)nc1NC(=O)N1Cc2ccc(CN3CCCC3)cc2C1 [Compound 410] | 6.30 to 7.00
61 | Nc1ccc(-c2ccc(F)cc2)nc1NC(=O)N1CC2CCCC2C1 (centres unmarked) [Compound 385] | 5.30 to 6.30
62 | Nc1ccc(-c2ccc(F)cc2)nc1NC(=O)c1nc2c(s1)CCN(CCF)C2 [Compound 165] | 6.30 to 7.00
63 | CN(C)Cc1ccc2c(c1)CN(C(=O)Nc1nc(-c3ccc(Cl)s3)ccc1N)C2 [Compound 401] | < 5.30
64 | Nc1ccc(-c2ccc(F)cc2)nc1NC(=O)N1Cc2cc(C3CC3)cnc2C1 [Compound 255] | 6.30 to 7.00
65 | Nc1ccc(-n2cccn2)nc1NC(=O)C1CN(Cc2ccccc2)C1 [Compound 205] | < 5.30
66 | Nc1ccc(-c2ccc(F)cc2)nc1NC(=O)N1Cc2cc(F)cnc2C1 [Compound 186] | 5.30 to 6.30
67 | CN1CCN(Cc2cnc3c(c2)CN(C(=O)Nc2nc(-c4ccc(F)cc4)ccc2N)C3)CC1 [Compound 168] | 6.30 to 7.00
68 | Nc1ccc(-c2ccc(F)cc2)nc1NC(=O)N1CCC(F)(F)C1 [Compound 364] | 5.30 to 6.30
69 | Nc1ccc(-c2cccnc2)nc1NC(=O)N1Cc2ccc(CO)cc2C1 [Compound 395] | < 5.30
70 | CC(O)c1ccc2c(c1)CN(C(=O)Nc1nc(-c3ccc(F)cc3)ccc1N)C2 (centres unmarked) [Compound 394] | 6.30 to 7.00
71 | Nc1ccc(-c2ccc(F)cc2)nc1NC(=O)N1Cc2cc(CN3CCC3)cnc2C1 [Compound 272] | 6.30 to 7.00
72 | Nc1cn(-c2ccccc2)nc1NC(=O)N1Cc2ccc(CO)cc2C1 [Compound 350] | 5.30 to 6.30
73 | Nc1ccc(-c2cccnc2)nc1NC(=O)N1CC2(CCNCC2)C1 [Compound 220] | < 5.30
74 | CC(=O)N1CCN(CC(=O)Nc2nc(-c3ccccc3)ccc2N)CC1 [Compound 196] | < 5.30
75 | Nc1ccc(-n2cccn2)nc1NC(=O)N1CC2CC(N3CC(F)C3)CC2C1 (centres unmarked) [Compound 190] | < 5.30
76 | CN(C1COC1)C1CC2CN(C(=O)Nc3nc(-c4ccc(F)cc4)ccc3N)CC2C1 (centres unmarked) [Compound 248] | 5.30 to 6.30
77 | CN1CCC(C(=O)Nc2nn(-c3ccccc3)cc2N)CC1 [Compound 354] | < 5.30
